Test results from patent EP2002836B1, “Cyclocondensed azaindoles active as kinase inhibitors” (Nerviano Medical Sciences S.r.l., priority 2007, dated 2008).

Key:
AKT2 = target: T1, AKT2 (Homo sapiens, UniProt P31751); assay: Biochemical assay for inhibitors of AKT2 kinase activity (33P trans-phosphorylation, Dowex resin); settings: 10 nM enzyme, 396 microM ATP, 8.5 microM peptide substrate; read-out: AKT2 IC50 (µM) Biochem assay
T1 construct: made in house
Description: (§1) The N-terminal GST fusion proteins used for the assays were prepared according to the methods described in Kumar, C. C. Biochem. Biophys. ACTA 2001, 1526, 257-268, and in Alessi, D. R.. Biochem. J. 1998 331, 299-308.
(§2) The in vitro kinase inhibition assay was conducted in the same way as described for AKT1. The kinase assay was run with a final enzyme concentration of 10 nM, in the presence of 396 microM ATP, 0.88 nM ^33P-γ-ATP and 8.5 microM substrate, a carboxy-terminally biotinylated peptide of the following sequence: ARKRERTYSFGHHA-biotin. The peptide was obtained in batches of >95% peptide purity from PRIMM labs Inc. (Boston MA, USA).

AKT3 = AKT3 (Homo sapiens, UniProt Q9Y243); assay: Biochemical assay for inhibitors of AKT3 kinase activity (33P trans-phosphorylation, Dowex resin); settings: 1 nM enzyme, 180 microM ATP, 28.5 microM peptide substrate; read-out: AKT3 IC50 (µM) Biochem assay
Description: as §1
as §2, with “1” for “10”, “180” for “396”, “28.5” for “8.5”

AKT1 = AKT1 (Homo sapiens, UniProt P31749); assay: Biochemical assay for inhibitors of AKT1 kinase activity (33P trans-phosphorylation, Dowex resin); parameters: made in house; settings: 5 nM enzyme, 132 microM ATP, 30 microM peptide substrate; read-out: AKT1 IC50 (µM) Biochem assay
Description: as §1
The inhibitory activity of putative kinase inhibitors and the potency of selected compounds were determined using a trans-phosphorylation assay.
A specific substrate was incubated with the kinase in appropriate buffer conditions in the presence of ATP traced with ^33P-γ-ATP (gamma phosphate-labeled, Redivue™ Code Number AH9968, 1000-3000Ci/mmole, Amersham Biosciences Piscataway, NJ, USA), optimal cofactors and test compound.
At the end of the phosphorylation reaction, more than 98% cold and radioactive ATP were captured by an excess of Dowex ion exchange resin. The resin was allowed to settle to the bottom of reaction wells by gravity. Supernatant, containing substrate peptide, was subsequently withdrawn and transferred into a counting plate, and radioactivity (corresponding to phosphate incorporated into peptide) was evaluated by β-counting.
Kinase buffer was composed of 50 mM TRIS pH 7.5 containing10 mM MgCl2, 1 mM DTT, 3 microM Na3VO4, and 0.2 mg/mL BSA. 3X KB is buffer of the same composition and pH as KB, but with three times the concentration of each component. iii.Assay conditions (final concentrations) for AKT1.
as §2, with “The” for “The in vitro kinase inhibition assay was conducted in the same way as described for AKT1. The”, “5” for “10”, “132” for “396”, “30” for “8.5”
The "test" mixture of 15 microL consisting of: • 1) 5 µl/well of 3x Enzyme mix (done in Kinase Buffer 3X), • 2) 5 µl/well of 3x substrate and ATP mix (done in ddH2O), together with ^33P-γ-ATP, • 3) 5 µl/well of 3x test compounds (diluted into ddH2O - 3% DMSO).
For % inhibition studies, dilution plates at 1 mM, 10 microM and 100 microM were prepared in 100% DMSO, then diluted to 3X final desired concentration (30, 3 and 0.3 microM) in ddH2O, 3% DMSO. A Multimek 96 (Beckman Coulter, Inc. 4300 N. Harbor Boulevard, P.O. Box 3100 Fullerton, CA 92834-3100 USA) was used for compound pipetting into test plates.
For IC50 determination, starting solutions of 30 microM compound in 3% DMSO were derived from 1 mM/100% DMSO stock solutions. These 30 microM starting solutions were used for generation of a further 9 serial 1/3 dilutions in ddH20, 3% DMSO, so as to generate a 10-point dilution curve at 3X the final assay concentration. Serial dilution was conducted in 96-well plates using a Biomek 2000 (Beckman Coulter) system. Dilution curves of 7 compounds/plate were prepared, and each plate also included a 10-point dilution curve of Staurosporine, as well as several negative and positive control wells.
384-well plates, V bottom (test plates) are prepared with 5 µl of the compound dilution (3X) and then placed onto a PlateTrak 12 robotized station (Perkin Elmer; the robot has one 384-tips pipetting head for starting the assay plus one 96-tips head for dispensing the resin) together with one reservoir for the Enzyme mix (3X) and one for the ATP mix (3X).
At the start of the run, the robot aspirates 5 µl of ATP mix, makes an air gap inside the tips (3 µl) and aspirates 5 µl of AKT mix. The following dispensation into the plates allows the kinase reaction to start upon 3 cycles of mixing, done by the robot itself.
The robot incubates the plates for 60 minutes at room temperature, and then stops the reaction by pipetting 70 µl of dowex resin suspension into the reaction mix. Three cycles of mixing are done immediately after the addition of the resin.
Another mixing cycle is performed after all the plates are stopped, this time using normal tips: the plates are then allowed to rest for about one hour in order to maximize ATP capture. […]

AKT3, sequence (Q9Y243 2-479): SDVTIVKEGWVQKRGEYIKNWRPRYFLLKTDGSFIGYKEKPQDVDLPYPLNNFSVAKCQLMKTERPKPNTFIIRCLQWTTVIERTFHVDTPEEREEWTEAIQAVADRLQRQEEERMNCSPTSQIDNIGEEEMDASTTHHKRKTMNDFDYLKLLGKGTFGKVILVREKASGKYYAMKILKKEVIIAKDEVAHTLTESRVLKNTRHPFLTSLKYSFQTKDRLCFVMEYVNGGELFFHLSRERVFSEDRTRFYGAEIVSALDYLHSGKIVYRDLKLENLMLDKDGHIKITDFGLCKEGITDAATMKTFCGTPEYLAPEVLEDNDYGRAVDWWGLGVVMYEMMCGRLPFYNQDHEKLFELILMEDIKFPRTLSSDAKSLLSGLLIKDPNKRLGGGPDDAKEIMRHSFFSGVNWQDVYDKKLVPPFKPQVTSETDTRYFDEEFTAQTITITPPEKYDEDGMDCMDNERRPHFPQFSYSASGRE
T1 sequence (P31751 whole entry, species assumed): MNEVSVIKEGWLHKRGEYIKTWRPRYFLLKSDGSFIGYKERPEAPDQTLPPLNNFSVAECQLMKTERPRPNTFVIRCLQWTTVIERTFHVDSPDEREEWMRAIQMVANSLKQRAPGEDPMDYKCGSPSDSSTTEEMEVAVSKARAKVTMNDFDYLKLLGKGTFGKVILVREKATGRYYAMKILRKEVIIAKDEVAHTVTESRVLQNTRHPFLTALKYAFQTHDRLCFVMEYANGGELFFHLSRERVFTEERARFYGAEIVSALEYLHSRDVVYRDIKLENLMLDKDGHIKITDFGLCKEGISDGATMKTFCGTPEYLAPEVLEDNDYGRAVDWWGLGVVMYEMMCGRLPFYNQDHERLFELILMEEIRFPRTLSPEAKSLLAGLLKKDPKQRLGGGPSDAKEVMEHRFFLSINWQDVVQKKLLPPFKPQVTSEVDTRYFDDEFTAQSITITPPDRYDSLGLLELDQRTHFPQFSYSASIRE
AKT1, sequence (P31749 whole entry): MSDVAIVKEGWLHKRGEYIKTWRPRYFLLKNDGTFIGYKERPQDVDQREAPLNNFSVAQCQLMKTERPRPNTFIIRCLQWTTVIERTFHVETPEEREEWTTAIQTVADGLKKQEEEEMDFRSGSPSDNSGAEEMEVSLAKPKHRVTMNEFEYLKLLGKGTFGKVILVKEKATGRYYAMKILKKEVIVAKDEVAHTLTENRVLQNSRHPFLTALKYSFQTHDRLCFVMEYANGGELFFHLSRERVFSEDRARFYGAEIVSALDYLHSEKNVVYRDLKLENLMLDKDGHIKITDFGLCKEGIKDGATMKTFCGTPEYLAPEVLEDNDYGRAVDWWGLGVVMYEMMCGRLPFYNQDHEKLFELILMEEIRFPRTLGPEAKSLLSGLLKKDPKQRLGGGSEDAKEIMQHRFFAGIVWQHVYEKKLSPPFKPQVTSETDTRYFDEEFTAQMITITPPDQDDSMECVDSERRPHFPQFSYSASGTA

IC50 (AKT2) | IC50 (AKT3) | IC50 (AKT1) | SMILES
1.86 µM | 1.06 µM | 0.431 µM | O=C(N[C@H](CN1CCCC1)c1ccccc1)c1cc2c3c(nccc3c1)NC2 [Cpd. 8, N-[(1S)-1-phenyl-2-pyrrolidin-1-ylethyl]-1,2-dihydropyrrolo[4,3,2-ij]isoquinoline-4-carboxamide]
0.797 µM | 0.717 µM | 0.132 µM | NC[C@H](Cc1ccccc1)NC(=O)c1cc2c3c(nccc3c1)NC2 [Cpd. 7, N-[(1S)-2-amino-1-benzylethyl]-1,2-dihydropyrrolo[4,3,2-ij]isoquinoline-4-carboxamide]
